Source: BindingDB's records for doi:10.1016/j.bmcl.2011.10.116 (The University of Queensland, 2012)

Each compound was assayed against Beta-lactamase (Pseudomonas aeruginosa, UniProt Q79MP6) (assay: Competitive inhibition of Pseudomonas aeruginosa beta-lactamase IMP-1 assessed as formation of 4-nitrothiophenolate at pH 7 using CENTA as chromogenic substrate).
Chain of Beta-lactamase (Q79MP6 whole entry): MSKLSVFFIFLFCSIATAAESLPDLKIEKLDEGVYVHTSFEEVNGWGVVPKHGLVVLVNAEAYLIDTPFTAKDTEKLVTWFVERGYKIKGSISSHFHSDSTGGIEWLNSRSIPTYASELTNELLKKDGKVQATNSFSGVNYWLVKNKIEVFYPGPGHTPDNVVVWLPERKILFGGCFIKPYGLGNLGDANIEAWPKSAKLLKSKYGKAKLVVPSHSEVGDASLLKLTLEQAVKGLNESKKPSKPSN

Row | Compound | Ki [µM]
1 | O=C(c1ccccc1)c1ccc(-c2nnc(S)[nH]2)cc1 | 75
2 | NC(S)=NNC(=O)c1ccccc1 | 19
3 | NC(=S)NNC(=O)c1ccc(C(=O)c2cccc([N+](=O)[O-])c2)cc1 | 16
4 | Cc1ccc(C(=O)c2ccc(C(=O)NNC(N)=S)cc2)cc1 | 41
5 | NC(=S)NNC(=O)c1ccc(C(=O)c2ccccc2)cc1 | 13
6 | NC(=S)NNC(=O)c1ccc(C(=O)c2ccccc2Cl)cc1 | 14
7 | NC(=S)NNC(=O)c1ccc(Cc2ccccc2)cc1 | 18
8 | NC(=S)NNC(=O)c1ccc(C(=O)c2ccc([N+](=O)[O-])cc2)cc1 | 11
